Measured values reported in ChEMBL document CHEMBL5441456, “ASAP - SARS-CoV-2 nsp3 macrodomain dose response” (2024).
“And” between values parts separate entries of the source, which are not always exact repeats. Equal values may be shown once.

Molecular target: Replicase polyprotein 1ab (Severe acute respiratory syndrome coronavirus 2, UniProt P0DTD1)
Test: Functional biochemical assay to identify treatments for viral infectious disease that targets SARS-COV-2 nsp3 macrodomain, whereby the mechanism of action displaces an ADP-Ribose modified peptide from the binding site. Utilizing a time-resolved fluorescence method to measure binding by reading the emitted fluorescence intensity in two wavelengths.

SMILES	IC50
CC(C)[C@@H](Nc1ncnc2[nH]c(-c3cc[nH]c3)cc12)c1ccc2c(c1)OCCO2	5.34 µM and 4.55 µM
CC(C)[C@@H](Nc1ncnc2[nH]c(C(=O)NCCc3cn[nH]c3)cc12)c1ccc2c(c1)OCCO2	1.36 µM and 3.4 µM
Cn1ncc(-c2cc3c(N[C@H](c4ccc5c(n4)OCCO5)C(C)(C)C)ncnc3[nH]2)c1C#N	4.96 µM and 2.33 µM and 3.08 µM and 2.42 µM and 10.8 µM
CO[C@@H]1CCC[C@H]1NC(=O)c1cc2c(N[C@@H](c3ccc4c(c3)OCCO4)C(C)C)ncnc2[nH]1	1.01 µM and 1.34 µM
CC(C)[C@@H](Nc1ncnc2[nH]c(C(=O)NC[C@@H]3CCOC3)cc12)c1ccc2c(c1)OCCO2	0.58 µM and 1.15 µM
Cc1ccc2c(NC(=O)c3ccc(NC(=O)NC4CC4)cc3)c(C(=O)O)sc2n1	> 99.5 µM
CC(C)[C@@H](Nc1ncc2c(n1)CCCC2)c1ccc2c(c1)OCCO2	> 99.5 µM
CC(=O)Nc1ccc(-c2cc3c(N[C@@H](c4ccc5c(c4)S(=O)(=O)CCC5)C(C)C)ncnc3[nH]2)cc1F	0.203 µM and 0.12 µM and 0.206 µM
CC(C)[C@@H](Nc1ncnc2[nH]c(C(=O)Nc3ncco3)cc12)c1ccc2c(c1)OCCO2	7.24 µM and 5.89 µM
c1nc(N[C@@H](c2ccc3c(c2)OCCO3)C2CC2)c2cn[nH]c2n1	17.7 µM and 19.9 µM
CC(C)[C@H](Nc1ncnc2[nH]cc(C(=O)NC3CC3)c12)c1ccc2c(c1)S(=O)(=O)CCC2	3.9 µM and 6.46 µM and 4.28 µM
Cc1nn(CC(N)=O)cc1-c1cc2c(N[C@@H](c3ccc4c(c3)OCCO4)C(C)C)ncnc2[nH]1	0.33 µM and 0.341 µM
C[C@H]1C[C@H]1c1nnc(Nc2ccc([C@@H](CC(=O)O)NC(=O)c3ncnc4[nH]ccc34)cc2)o1	7.86 µM and 6.04 µM
O[C@@H]1CCCC[C@@H]1Nc1ncnc2[nH]ccc12	> 99.5 µM and 95.3 µM
CC(C)[C@@H](Nc1ncnc2[nH]ccc12)c1cccc(S(C)(=O)=O)c1	96.4 µM
CC(C)[C@H](Nc1cc(N2CCNCC2)ncn1)c1ccc2c(c1)S(=O)(=O)CCC2	> 99.5 µM
O=C(O)C[C@@H](NC(=O)c1ncnc2[nH]ccc12)c1ccc(NCC2C[C@@H](O)[C@@H](O)C2)cc1 (stereo partly drawn)	25 µM and 27.5 µM
CC(C)[C@@H](Nc1ncnc2[nH]c(-c3cncn3C)cc12)c1ccc2c(c1)OCCO2	5.77 µM and 7.42 µM
CC(C)[C@@H](Nc1ncnc2[nH]c(S(C)(=O)=O)cc12)c1ccc2c(c1)S(=O)(=O)CCC2	0.992 µM
C[C@@H](Nc1ncnc2[nH]ccc12)[C@@H]1CCOC1	> 99.5 µM
CC(C)[C@H](Nc1ncnc2cn[nH]c12)c1ccc2c(c1)S(=O)(=O)CCC2	> 99.5 µM
O=C(O)[C@H]1CCCCCN1C(=O)c1ncnc2[nH]ccc12	> 124 µM
CC(C)[C@H](Nc1ncnc2[nH]c(-c3cnn(CC(N)=O)c3)cc12)c1ccc2c(n1)OCCO2	11.6 µM
COc1ccc([C@@H](NC(=O)c2ncnc3[nH]ccc23)C(C)(C)C#N)cc1	> 99.5 µM

SMILES	IC50
CC(C)[C@@H](Nc1ncnc2[nH]c(-c3ccnc(N4CCCC4)c3)cc12)c1ccc2c(c1)OCCO2	16.6 µM and 17.2 µM
CC(C)[C@@H](Nc1ncnc2[nH]c(-c3ccoc3)cc12)c1ccc2c(c1)OCCO2	1.52 µM and 1.64 µM
CCc1cnn(C)c1NC(=O)c1ncnc2[nH]ccc12	> 99.5 µM
CC(C)[C@@H](Nc1ncnc2[nH]c(C(=O)NC3COC3)cc12)c1ccc2c(c1)OCCO2	0.743 µM and 1.54 µM
Brc1ccc(-n2nnnc2Sc2ncnc3[nH]ccc23)cc1	> 124 µM
CC(C)[C@@H](Nc1ncnc2[nH]c(-c3ccc4nnn(C)c4c3)cc12)c1ccc2c(c1)S(=O)(=O)CCC2	0.1 µM and 0.085 µM
Cn1cc([C@@H](Nc2ncnc3[nH]ccc23)c2ccc(F)cc2)cn1	> 99.5 µM
CC(C)[C@H](Nc1ncnc2[nH]ccc12)c1ccc2c(c1)NC(=O)CO2	> 99.5 µM
NC(=O)C[C@H](NC(=O)c1ncnc2[nH]ccc12)c1ccc(Cl)cc1	> 99.5 µM
CC(C)[C@@H](Nc1ncnc2[nH]c(-c3cccc(Cn4ccnc4)c3)cc12)c1ccc2c(c1)OCCO2	> 99.5 µM
CC(C)[C@H](Nc1ncnc2[nH]c(-c3cnn(CC(N)=O)c3)cc12)c1ccc2c(c1)S(=O)(=O)CCC2	21 nM and 16 nM and 31 nM (2×) and 15 nM and 23 nM (2×) and 25 nM
COCCn1ncc(-c2cc3c(N[C@@H](c4ccc5c(c4)OCCO5)C(C)C)ncnc3[nH]2)c1C#N	0.394 µM and 0.449 µM
O=C(Nc1ccc(C(=O)N[C@@H]2c3ccccc3C[C@@H]2C(=O)O)cc1)c1ccc(C(=O)NC2CC2)cc1	> 99.5 µM
c1nc(-c2ccc3c(c2)OCO3)c2cc[nH]c2n1	> 99.5 µM
CC(C)[C@@H](Nc1ncnc2[nH]c(-c3ccco3)cc12)c1ccc2c(c1)OCCO2	6.2 µM and 6.1 µM
CC(C)[C@@H](Nc1ncnc2[nH]ccc12)c1cccc(C(F)(F)F)c1	83.2 µM and 77.6 µM
CNC(=O)c1cc2c(N[C@H](c3ccc4c(c3)NC(=O)CO4)C(C)C)ncnc2[nH]1	5.36 µM and 0.961 µM and 1.34 µM and 1.08 µM
Cc1[nH]c2ncnc(NC(=O)Cc3cn[nH]c3)c2c1C	75.2 µM and 99 µM
CC(C)[C@H](Nc1cc(-n2nccn2)ncn1)c1ccc2c(c1)S(=O)(=O)CCC2	> 99.5 µM
CC(C)[C@H](Nc1ncncc1Cl)c1ccc2c(c1)S(=O)(=O)CCC2	> 99.5 µM
O=C(O)c1ccc(C(=O)N2CCC(c3ccn4ncc(C(=O)N5CCCCC5)c4c3)CC2)o1	68.1 µM
CC(C)[C@@H](Nc1ncnc2[nH]ccc12)c1cccs1	14.9 µM
Cc1cc2c(C(=O)N[C@@H](CC(=O)O)c3ccc(Br)cc3)cccc2[nH]1	> 99.5 µM
CC(C)[C@@H](Oc1cc(N)ncn1)c1ccc2c(c1)S(=O)(=O)CCC2	67.4 µM

SMILES	IC50
CC(C)[C@@H](Nc1ncnc2[nH]c(-c3cnn(CC(N)=O)c3)cc12)c1ccc2c(n1)NC(=O)CO2	0.25 µM and 0.302 µM and 0.355 µM
CCc1n[nH]cc1-c1cc2c(N[C@@H](c3ccc4c(c3)OCCO4)C(C)C)ncnc2[nH]1	1.19 µM and 0.961 µM
Cc1cc(C)cc(CS(=O)(=O)Nc2cnc3[nH]ccc3c2)c1	> 99.5 µM
CC(C)[C@@H](Nc1ncnc2[nH]cc(S(=O)(=O)N(C)C)c12)c1ccc2c(c1)OCCO2	3.45 µM and 3.98 µM
O=C(O)C[C@@H](NC(=O)c1cccc2[nH]cnc12)c1ccc(Br)cc1	39.2 µM and 40.3 µM
O=C(O)C[C@@H](NC(=O)Cc1c[nH]c2ncccc12)c1ccc(Br)cc1	> 99.5 µM
Cc1nc(C)c(CC(=O)Nc2cnc3[nH]ncc3c2)c(=O)[nH]1	> 99.5 µM
CC(C)[C@@H](Nc1ccnc2nn[nH]c12)c1ccc2c(c1)S(=O)(=O)CCC2	> 99.5 µM
CCn1cc(-c2cc3c(N[C@@H](c4ccc5c(c4)OCCO5)C(C)C)ncnc3[nH]2)c(C)n1	0.423 µM and 0.473 µM
Cc1cocc1-c1cc2c(N[C@@H](c3ccc4c(c3)OCCO4)C(C)C)ncnc2[nH]1	2.51 µM and 2.58 µM
CC(C)[C@@H](Nc1ncnc2[nH]c(-c3cnn(C4CCC4)c3)cc12)c1ccc2c(c1)OCCO2	1.17 µM and 1.52 µM and 1.4 µM
Cc1[nH]c2ncnc(NC(=O)c3cccc(Cl)n3)c2c1C	> 99.5 µM
CC(C)[C@@H](Nc1ncnc2[nH]c(-c3ccc(S(=O)(=O)NCCO)cc3)cc12)c1ccc2c(c1)S(=O)(=O)CCC2	0.1 µM and 0.09 µM and 0.156 µM
Cc1c(C#N)cncc1-c1cc2c(N[C@@H](c3ccc4c(c3)OCCO4)C(C)C)ncnc2[nH]1	19.2 µM and 16.3 µM
CC(C)[C@@H](Nc1ncnc2c1CNCC2)c1ccc2c(c1)S(=O)(=O)CCC2	> 99.5 µM
Cc1cn(C)nc1-c1cc2c(N[C@@H](c3ccc4c(c3)OCCO4)C(C)C)ncnc2[nH]1	> 99.5 µM
CC(C)[C@@H](Nc1ncnc2[nH]c(-c3cncc(OCCN(C)C)c3)cc12)c1ccc2c(c1)OCCO2	0.903 µM and 0.891 µM
c1nc(NCc2ccc3c(c2)OCCO3)c2cc[nH]c2n1	80.3 µM and 93.9 µM
O=C(O)CC(NC(=O)c1ncnc2[nH]ccc12)c1ccc(NC2C[C@H]3CC(CO)C[C@@H]23)cc1 (stereo partly drawn)	> 99.5 µM
O=C(Nc1ccc(C(=O)Nc2c(C(=O)O)sc3cnccc23)cc1)NC1CC1	> 99.5 µM
CC(C)[C@H](Nc1ccnc2[nH]ccc12)c1ccc2c(c1)S(=O)(=O)CCC2	> 99.5 µM
Cc1[nH]c2ncnc(NC(=O)[C@@H]3CCCc4ncccc43)c2c1C	> 99.5 µM
O=C(c1cn2ncccc2n1)N1CCC(c2ccn3ncc(C(=O)N4CCCCC4)c3c2)CC1	> 99.5 µM
CC(C)(C)n1cc([C@H]2N(c3ncnc4[nH]ccc34)CC23CCOCC3)cn1	> 99.5 µM

SMILES	IC50
Cc1ncc(C(=O)Nc2ncnc3[nH]c(C)c(C)c23)cn1	> 99.5 µM
CC(C)[C@@H](Nc1ncnc2[nH]c(C(=O)Nc3cn(C)nc3O)cc12)c1ccc2c(c1)OCCO2	0.678 µM and 0.611 µM
CC(C)[C@@H](Nc1ncnc2[nH]c(C(=O)NCC3(CO)CCC3)cc12)c1ccc2c(c1)OCCO2	1.29 µM and 2.35 µM
CC(=O)Nc1cccc([C@@H](CC(=O)O)NC(=O)c2ncnc3[nH]ccc23)c1	25.8 µM and > 12.4 µM and 20.7 µM
Cc1coc(-c2cc3c(N[C@@H](c4ccc5c(c4)OCCO5)C(C)C)ncnc3[nH]2)c1	> 99.5 µM
O=C(Nc1cccc2c(C(=O)N[C@@H]3c4ccccc4C[C@@H]3C(=O)O)c[nH]c12)NC1CC1	3.47 µM and 3.78 µM and 2.28 µM and 1.85 µM
CC(C)[C@H](Nc1ncnc2[nH]c(C(=O)N[C@H]3CCN(C)C3)cc12)c1ccc2c(c1)S(=O)(=O)CCC2	3.15 µM
COc1nc(N[C@@H](c2ccc3c(c2)OCCO3)C(C)C)c2cc[nH]c2n1	> 99.5 µM
CC(C)[C@@H](Nc1cc(-c2c[nH]cn2)ncn1)c1ccc2c(c1)OCCO2	> 99.5 µM
CC(C)[C@@H](Nc1ncnc2[nH]c(-c3ccc(-n4cccn4)cc3)cc12)c1ccc2c(c1)OCCO2	> 99.5 µM
Cc1[nH]c2ncnc(NC(=O)[C@@H]3CCO[C@@H]3C)c2c1C	122 µM
O=C(N[C@@H](CCO)c1ccccc1F)c1ncnc2[nH]ccc12	> 99.5 µM
CC(C)c1nc(N[C@@H](c2ccc3c(c2)OCCO3)C(C)C)c2cc[nH]c2n1	> 99.5 µM
CCNC(=O)c1cc2c(N[C@@H](c3ccc4ncn(C)c(=O)c4c3)C(C)C)ncnc2[nH]1	0.409 µM and 0.455 µM
CC(C)[C@@H](Nc1cnc2[nH]cnc2c1)c1ccc2c(c1)S(=O)(=O)CCC2	> 99.5 µM
O=C(O)C[C@@H](NC(=O)c1ncnc2[nH]ccc12)c1ccc(Nc2nnc(C3CC3)o2)cc1	3.78 µM and 4.55 µM
C[C@@H](c1ccc(F)c(F)c1)N(C)C(=O)c1ncnc2[nH]ccc12	> 99.5 µM
CC(C)[C@@H](Nc1ncncc1Cl)c1ccc2c(c1)S(=O)(=O)CCC2	> 99.5 µM
CC(C)[C@@H](Nc1ncnc2[nH]c(-c3ccc(C#N)nc3)cc12)c1ccc2c(c1)OCCO2	1.85 µM and 2.13 µM
CC(C)[C@@H](Nc1ncnc2[nH]c(-c3cn[nH]c3)cc12)c1ccc2c(c1)OCCO2	0.713 µM and 0.737 µM
O=C(O)C[C@@H](NC(=O)c1c[nH]c2ncncc12)c1ccc(NCC2=NO[C@@H]3COC[C@H]23)cc1	> 99.5 µM
